Results on 12 compounds are retold here after patent publication US20100210602A1, “PhoU (PerF), A P[…] INVOLVED IN [sequence] FORMATION AND TOLERANCE TO MULTIPLE ANTIBIOTICS AND [sequence] AS A DRUG TARGET FOR [sequence] BACTERIA” (priority 2006, published 2010).

Converted amounts (≈) assume the structure as drawn. Like-named read-outs stand apart in the source and are kept apart here.

Experiment [1] has as its system W3110.
Experimental: (§1) The sensitivity of the bacterial strains to antibiotics or peroxide was determined by Kirby-Bauer's paper disc assay as measured by zone inhibition in millimeters.
(§2) The sensitivity of bacterial strains to antibiotics or stresses was also assessed by the Kirby-Bauer method (2) using paper discs. E. coli bacteria were grown to log phase (10^8 bacteria) in LB broth. An inoculum from this culture was spread across the surfaces of LB plates to provide confluent growth. Nitrocellulose discs (7 mm in diameter) soaked with appropriate antibiotics or stress agents (100 mM H2O2, were placed on the agar surface). After incubation at 37° C. for 48 h, the diameter of the zone of growth inhibition was measured and scored according to the size of the zone of inhibition, which is directly proportional to the sensitivity of the organism to the antibiotic.
The subject of experiment [2] is JHU-313 containing pPhoU. As to the kind of experiment: Kirby-Bauer paper disc assay, zone inhibition.
Experimental: as §1, §2
In experiment [3] the test system is JHU-313 containing pVector. Briefly: Kirby-Bauer paper disc assay, zone inhibition.
Experimental: as §1, §2
Experiment [4] has as its system JHU-313. As to the kind of experiment: Kirby-Bauer paper disc assay, zone inhibition.
Experimental: as §1, §2
Experiment [5] deals with H37Rv. Briefly: microbe, parasite or virus in culture. The class given is cell-based, M. tuberculosis. Particulars: Mycobacterium tuberculosis, 240 h.
For experiment [6], the system named is wild type strain W3110. As to the kind of experiment: microbe, parasite or virus in culture. The class given is cell-based, E. coli. Particulars: for CFU remaining: stationary phase.
Experiment [7] has as its system PhoU mutant JHU-313. The class given is cell-based, E. coli.
Experiment [8] relates to H37Rv. As to the kind of experiment: microbe, parasite or virus in culture. Format: cell-based, M. tuberculosis. To be noted: Mycobacterium tuberculosis.
For experiment [9], the system named is parent strain H37Rv. The class given is cell-based, M. tuberculosis.
The target in experiment [10] is PhoY2 (Mycobacterium tuberculosis, UniProt P9WI95). Briefly: EnzChek phosphatase assay, FDA approved compound library screen. The class given is biochemical, M. tuberculosis. Particulars: for inhibition of PhoY2 enzyme activity in library screen: 50 μM final concentration, 30 min, 60 min and overnight. The method, then: The FDA approved compound library consisting of about 3000 clinical compounds (50 μM final concentration) was screened for inhibitory activity for M. tuberculosis PhoU homolog PhoY2 for phosphatase activity using the EnzChek phosphatase assay kit in a 96 well plate format. The assay was run for 30 min, 60 min and overnight when the plates were read in a fluorescence plate reader (Perkin Elmer). Aurintricarboxylic acid, a known phosphatase inhibitor, was included as a positive control.

Experiment [11] deals with PhoU mutant. As to the kind of experiment: Weak acid susceptibility on LB agar pH 5.0. Format: cell-based, E. coli. Particulars: salicylic acid 80 μg/ml, pyrazinoic acid 230 μg/ml, overnight 37° C.
Experiment [12] concerns wild type strain W3110. Briefly: Weak acid susceptibility on LB agar pH 5.0. The class given is cell-based, E. coli. Particulars: salicylic acid 80 μg/ml, pyrazinoic acid 230 μg/ml, overnight 37° C.
For experiment [13], the system named is M. tuberculosis H37Rv. As to the kind of experiment: Killing of old stationary phase cells by PhoY2 inhibitors with TB drugs (CFU). Format: cell-based. To be noted: one and two week exposure, 37° C. The method, then: PhoY2 phosphatase activity inhibitors identified in the screen were tested for their ability to decrease persister formation in M. tuberculosis. […] After one and two week exposure, CFU (colony forming unit) was measured.

For experiment [14], the system named is wild type strain W3110. The class given is cell-based, E. coli. To be noted: 20 h after 1.5 h ampicillin pre-exposure; ampicillin 100, gentamicin 20, trimethoprim 16, norfloxacin 5 μg/ml.
The test system of experiment [15] is PhoU mutant (JHU-313). Briefly: Sequential antibiotic exposure of ampicillin persisters (CFU). Format: cell-based, E. coli. To be noted: 20 h after 1.5 h ampicillin pre-exposure; ampicillin 100, gentamicin 20, trimethoprim 16, norfloxacin 5 μg/ml.
The subject of experiment [16] is JHU-313 containing pPhoU. As to the kind of experiment: MIC/MBC by serial two-fold dilutions in LB broth. Particulars: 16 h at 37° C. Format: cell-based, E. coli.
Experiment [17] concerns wild type strain W3110. Briefly: microbe, parasite or virus in culture. Format: cell-based, E. coli. To be noted: LB broth, 16 h at 37° C.
The subject of experiment [18] is PhoU mutant (JHU-313). Briefly: MIC/MBC by serial two-fold dilutions in LB broth. To be noted: 16 h at 37° C. The class given is cell-based, E. coli.
The subject of experiment [19] is JHU-313 containing pVector. Briefly: MIC/MBC by serial two-fold dilutions in LB broth. Format: cell-based, E. coli. To be noted: 16 h at 37° C.
Experiment [20] deals with T1, PhoY1 (Mycobacterium tuberculosis, UniProt P9WI97).
T1 sequence (P9WI97 1-221): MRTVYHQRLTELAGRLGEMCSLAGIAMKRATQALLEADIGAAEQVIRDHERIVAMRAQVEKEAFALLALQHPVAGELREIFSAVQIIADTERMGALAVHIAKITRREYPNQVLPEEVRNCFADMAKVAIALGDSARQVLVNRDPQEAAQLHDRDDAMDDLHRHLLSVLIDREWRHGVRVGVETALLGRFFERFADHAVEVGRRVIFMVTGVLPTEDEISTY
As to the kind of experiment: EnzChek phosphatase assay. The class given is biochemical, M. tuberculosis. Particulars: pH 5.5.

Experiment [21] addresses T2, E. coli PhoU (Escherichia coli, UniProt P0A9K7).
T2 construct: His; made in house
As to the kind of experiment: EnzChek phosphatase assay, DiFMUP substrate, pH 5.5. The class given is biochemical. Particulars: pH 5.5, DiFMUP.
Experimental: In order to test PhoU for phosphatase activity, purified PhoU protein was analyzed using the EnzChek phosphatase assay kit (Invitrogen, Molecular Probes). Phosphatase activity was continuously monitored at acidic pH 5.5 and 6,8-difluoro-4-methylumbelliferyl phosphate (DiFMUP) was used as the substrate according to manufacturer's instruction.
Since most phosphatases have a metal requirement for activity, using either Mg^2+ or Zn^2+, the effects of various metal ions on the PhoU phosphatase enzyme activity were examined at acidic pH 5.5 and using DiFMUP as a substrate.
Phosphatase assays were performed using purified recombinant wild type and mutant PhoU proteins.

For experiment [22], the target named is T3, PhoU (Escherichia coli, UniProt P0A9K7).
T3 construct: His; made in house
As to the kind of experiment: PhoU phosphatase substrate specificity. Format: biochemical, E. coli. Particulars: pH5, pH7 and pH8. As for the experimental part: Different substrates for the PhoU phosphatase activity were tested. […] For PhoU, the substrates acetyl-P, carbamoyl-P, imido-di phosphate (imido-di-P), r-nitrophenyl phosphate (rNPP), β-Nicotinamide adenine dinucleotide phosphate (NADP), Glucose-1,6-bisphosphate (Glucose-1,6-bisP) were tested at pH5, pH7, and pH8 condition, as potential PhoU phosphatase activity.

PhoY2, sequence (P9WI95 whole entry): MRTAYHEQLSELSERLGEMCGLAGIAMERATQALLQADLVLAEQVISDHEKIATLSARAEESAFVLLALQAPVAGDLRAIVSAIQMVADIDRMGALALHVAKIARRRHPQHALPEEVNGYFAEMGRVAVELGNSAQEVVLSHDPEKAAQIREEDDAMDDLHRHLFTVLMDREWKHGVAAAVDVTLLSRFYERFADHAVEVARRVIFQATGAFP
T2 sequence (P0A9K7 whole entry): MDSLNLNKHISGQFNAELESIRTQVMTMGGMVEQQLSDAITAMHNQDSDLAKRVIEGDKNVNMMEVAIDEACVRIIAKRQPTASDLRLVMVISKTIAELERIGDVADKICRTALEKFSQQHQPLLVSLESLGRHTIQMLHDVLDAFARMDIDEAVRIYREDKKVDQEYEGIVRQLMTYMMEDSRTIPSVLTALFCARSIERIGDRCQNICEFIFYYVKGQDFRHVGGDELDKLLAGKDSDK
T3 sequence (P0A9K7 whole entry): as above

As for `OO` [Hydrogen peroxide, hydrogen peroxide], the zone inhibition was 30 mm in experiment [1], 39 mm in [2] (peroxide (30%)), 46 mm in experiment [3] (peroxide (30%)) and 37 mm in experiment [4] (peroxide (30%)).

For `NNC(=O)c1ccncc1` [INH, isoniazid], in [5] (10 days at 37° C.), the MIC was 0.2 µg/mL (≈ 1.46 µM).

With `NC(=O)c1cnccn1` [PZA, pyrazinamide], the MIC in experiment [6] (Escherichia coli, W3110, normal growing E. coli, pH 5.0) is over 2000 µg/mL; in [8] (pH 5.9, read-out: MIC), 200 µg/mL (≈ 1620 µM); in [5] (pH 5.6, pH5.6, 10 days at 37° C.), 200 µg/mL (≈ 1620 µM). Also, in experiment [6] (pH 5), the CFU left entry is given as “about 10^6 CFU/ml”. Moreover, the CFU remaining in experiment [6] (500 μg/ml, pH 5.0, 1 week) was 5×10^4 CFU/ml; in experiment [6] (2 mg/ml, pH 5.0, day 6), 6.7×10^6 CFU/ml. In experiment [7] (pH 5), the killing of culture result is recorded as “completely killed”. For the same compound, the viable bacteria left result in [7] (stationary phase, 500 μg/ml, pH 5.0, 1 week) is “no viable bacteria left”. Besides, the sterilization of culture entry in [7] (stationary phase, 2 mg/ml, pH 5.0, day 6) is listed as “completely sterilized”. The MBC in experiment [8] (pH 5.9, read-out: MBC) stood at 400 µg/mL (≈ 3250 µM). Also, in [9] (200 μg/ml), the “CFU/ml 3 day” value is recorded as 3.1 × 10^5 CFU/ml. Further, in experiment [9] (200 μg/ml), the “CFU/ml 9 day” value is on record as 5.3 × 10^3 CFU/ml.

With `CO[C@H]1/C=C/O[C@@]2(C)Oc3c(C)c(O)c4c(O)c(c(/C=N/N5CCN(C)CC5)c(O)c4c3C2=O)NC(=O)/C(C)=C\C=C\[C@H](C)[C@H](O)[C@@H](C)[C@@H](O)[C@@H](C)[C@H](OC(C)=O)[C@@H]1C` [RIF, rifampin], in experiment [8], the MBC was found to be 0.2 µg/mL (≈ 0.243 µM) and the MIC is 0.1 µg/mL (≈ 0.122 µM). Also, the “CFU/ml 3 day” value in experiment [9] (8 μg/ml) is 3.37 × 10^5 CFU/ml. The same compound had an MIC in experiment [5] (10 days at 37° C.) of 0.2 µg/mL (≈ 0.243 µM).

As for `C1CNCCN1` [piperazine], the “inhibition of PhoY2 enzyme activity in library screen” value in experiment [10] was “inhibit PhoY2 enzyme activity”.

Turning to `CN1CCCN=C1/C=C/c1cccs1` [pyrantel pamoate], in experiment [10], the “inhibition of PhoY2 enzyme activity in library screen” value is given as “inhibit PhoY2 enzyme activity”.

Take `O=C(O)c1cnccn1` [pyrazinoic acid]: the “growth on LB agar with weak acid” value in [11] is “lack of growth at ⅓ MIC”; in experiment [12] it was “resistant”.

For `O=C(O)c1ccccc1O` [salicylic acid], the “growth on LB agar with weak acid” value is listed as “lack of growth at ⅓ MIC” in experiment [11] and “resistant” in experiment [12].

Pyrantel tartrate: in [13], the “enhancement of INH, RIF or PZA activity” value is given as “could enhance the activity of INH, RIF or PZA”.

As for gentamicin, the “CFU after second antibiotic exposure” value was 5 × 10^5 CFU/ml in [14] and 2 × 10^3 CFU/ml in experiment [15]. For the same compound, the zone inhibition in experiment [1] (0.1 μg/ml) turned out to be 14 mm; in experiment [1] (0.5 μg/ml), 20 mm; in [1] (2 μg/ml), 22 mm; in experiment [1] (10 μg/ml) it was 25 mm; in experiment [2] (0.1 μg/ml) it was 17 mm; in experiment [2] (0.5 μg/ml), 22 mm. Further, the zone inhibition in experiment [2] (2 μg/ml) worked out at 24 mm; in experiment [2] (10 μg/ml), 28 mm; in experiment [3] (0.1 μg/ml), 22 mm; in experiment [3] (0.5 μg/ml), 29 mm; in experiment [3] (2 μg/ml), 30 mm; in experiment [3] (10 μg/ml) it was 31 mm. Also, the zone inhibition in experiment [4] (0.1 μg/ml) was 20 mm; in [4] (0.5 μg/ml), 22 mm; in experiment [4] (2 μg/ml), 26 mm; in [4] (10 μg/ml), 27 mm. The MBC in experiment [16] turned out to be 5 µg/mL; in [17], 5 µg/mL; in experiment [18], 2.5 µg/mL; in experiment [19] it was 2.5 µg/mL. The MIC turned out to be 2.5 µg/mL in experiment [16], 2.5 µg/mL in experiment [17], 1.25 µg/mL in experiment [18] and 1.25 µg/mL in experiment [19].

Consider phosphate, for which, in [20], the “effect on PhoY1 phosphatase activity” value is recorded as “inhibited”. Besides, the “effect on PhoU phosphatase activity” value in [21] is listed as “inhibit the phosphatase activity”. Besides, the “effect on PhoY2 phosphatase activity” value in [10] (pH 5.5) is listed as “inhibited”.

On to “β-Nicotinamide adenine dinucleotide phosphate [NADP]”, for which, in [22], the “rank as PhoU phosphatase substrate” value is “acetyl-P>rNPP>carbamoyl-P>Glucose-1,6-bisP>NADP”.
